According to ChEMBL document CHEMBL1144499, “Complanadines C and D, new dimeric alkaloids from Lycopodium complanatum” (Bioorg Med Chem, 2007):
≈ marks a conversion by molar mass, not a printed value. Calls of active or inactive are those of the source. The calls are words filed in the database; no cut-off is given here.

Experiments:
1321-N1 = assay: Enhancement of NGF mRNA expression in human 1321N1 cells; assay type: functional, cell-based
L1210 = assay: Cytotoxicity against mouse L1210 cells; assay type: cell-based
Cryptococcus neoformans = assay: Antimicrobial activity against Cryptococcus neoformans; assay type: functional
Aspergillus niger = assay: Antimicrobial activity against Aspergillus niger; assay type: functional

MIC (Cryptococcus neoformans): 0.26 µg/mL (≈ 0.534 µM)
MIC (Aspergillus niger): 4.16 µg/mL (≈ 8.55 µM)
Compound: C[C@@H]1C[C@H]2CC3=C(CC[C@H](c4cnc5c(c4)[C@@]46C[C@H](C)C[C@@H](C5)[C@H]4CCCN6)N3)[C@]3(C1)NCCC[C@H]23 [COMPLANADINE D]
Activity (1321-N1): Active
IC50 (L1210): 7 µg/mL (≈ 14.4 µM)
